16 compounds from patent EP2563337B1, “CARRIER AND TARGETING SYSTEM COMPRISING A SIOSOMAL COMPOSITION FOR INTRACELLULAR DELIVERY AND TARGETING OF ACTIVE SUBSTANCE” (Salama, Zoser B., priority 2010, dated 2011) can be followed below.

Data set [1] in a line: Encapsulation efficiency of doxorubicin hydrochloride in siosomes (absorbance at 480 nm after gel filtration). The class given is physicochemical. How it is done: A doxorubicin hydrochloride solution at 10 mg/ml was prepared using physiological saline. The predetermined amount of the doxorubicin hydrochloride solution was added to the sugar siosome dispersion using the cationic organosilicon compounds such as 1.2-(Dimethyldecylsilyl)ethyl-beta-D-glucosamin, 2.2-(Dimethyloctylsilylcholin)ethyl-beta-D-glucopyranosid and/or 1.2-(DiN,N,N,trimethylammoniadecylsilyl)ethyl-beta-D-glucopyranosid and the mixture was adjusted to pH 7.4, using 1 N NaOH or saturated sodium hydrogencarbonate and the mixture was stirred at 65°C for 30 minutes the thereby introduce the doxorubicin hydrochloride in the siosomes.
After doxorubicin hydrochloride introduction, the sample was cooled in an ice bath. Gel filtration was conducted using a column (Sepharose 4, fast flow, having a diameter of 2.8 cm and a length of 20 cm, fully substituted with 10% sucrose (pH 6.5)) to remove the doxorubicin hydrochloride that had not been introduced in the siosomes.
The amount of the sugar silanes in the siosomes, the amounts of the doxorubicin hydrochloride encapsulated in the siosomes and the siosomes themselves were measured by the same methods as in the above examples.
Concentration of the doxorubicin hydrochloride encapsulated in the siosomes was determined by measuring absorbance at 480 nm, using a spectrophotometer for the solution prepared by adding 2 ml of methanol to 40 µl of the doxorubicin siosomes. An alternative HPLC-based assay has also been used for the quantification of the doxorubicin in the formulations.
The above procedures described in example 16 were employed to prepare the carrier siosomes systems in this example. According to these methods of preparation, a dispersion of each of the following organo-silicon compounds were prepared, using doxorubicin hydrochloride solutions at […]. • Sil 8.1: Decyldimethylsilyl-α-D-galactopyranosid • Sil 9.1: Dodecyldimethylsilyl-α-D-glucopyranosid • SIL 15: 1-O-Dioctadecylsilyl-di(2,3,4,6-O-tetracetyl-β-D-galactopyranosid) • SIL 14: 1-o-Dioctadecylsilyl-di(2,3,4,6-O-tetracetyl-β-D-glucopyranosid)1-o- • SIL17: Didodecylsilyl-di(2,3,4,6-O-tetracetyl-β-D-glucopyranosid) • SIL18: Tridodecylsilyl-(2,3,4,6-O-tetracetyl-β-D-glucopyranosid) • Sil22.1 Di(octadecanoyloxy)dimethylsilan
The following parameters have been determined: 1 Physico chemical properties 2 Encapsulated efficiency of doxorubicin 3 Stability 4 Particle size distribution prior to lyophilisation and after dehydration using sterile water for injection 5 Release profile
A general note: Size exclusion chromatography separates by hydrodynamic size, large species first.

The conditions of data set [2]: for Particle size range of the Doxorubicin-siosomes (nm): Example 18: doxorubicin-siosomes prepared from the single organosilicon compound; for Particle size (nm): Example 19: doxorubicin-siosomes from organosilicon compounds and combinations.
Description: The siosome size was measured using Zetasizer (Malvern Instruments).
The obtained test samples were analyzed using a Zetasizer from Malvern to measure the particle size of the Siosomes® and its concentration (via determination of the count rate which related to the sample quality and concentration).
The Zetasizer from Malvern performs particle size measurements using a process called Dynamic Light Scattering (DLS). Dynamic Light Scattering (also known as PCS - Photon Correlation Spectroscopy) measures Brownian motion and relates this to the size of the particles. It does this by illuminating the particles with a laser and analyzing the intensity fluctuations in the scattered light. If the particles or molecules are illuminated with a laser, the intensity of the scattered light fluctuates at a rate that is dependent upon the size of the particles as smaller particles are "kicked" further by the solvent molecules and move more rapidly.
A short description of data set [3]: IPSS E011: pharmacokinetics and bioaccumulation of platinum complexes, total platinum in blood and organs by AAS. It counts as in vivo. The note with it: rats, 1.0 mg intravenous, repeated dose over 7 consecutive days. The source says: IPSS E011: A Clinical Study in Rats on the Pharmacokinetics and Bioaccumulation of Platinum Complexes following the Repeated Dose over 7 Consecutive Days of Formulations (PT-11, PT-12 and PT-13), with 7 Days Non-Treatment Period
The following tables and figure 12 illustrate a summary of the generated results.

Setting [4] is: Example 18: doxorubicin-siosomes prepared from the single organosilicon compound.
Setting [5] is: Example 19: doxorubicin-siosomes from organosilicon compounds and combinations.

Values joined by “and” are separate entries in the source; they are usually repeats but may differ in a detail not shown here. Equal entries are not always repeated.

With `C[Si](C)(CCCCCCCCC(=O)O)CCO[C@@H]1O[C@H](CO)[C@@H](O)[C@H](O)[C@H]1O` [SIL 58, 2-(Dimethylnonanoic acid silyl)ethyl-beta-D-glucopyranosid], the “Encapsulation efficiency (%)” value in data set [1] (setting [4]) is on record as 70-80%. The “Particle size range of the Doxorubicin-siosomes (nm)” value (shortened to “Particle size range”) in data set [2] is on record as 150-270 nm.
For “2-(Dimethyl nonaoic acid silyl)ethyl-beta-D-PEG-acetylglucosaminether [SIL 53]”, the “Encapsulation efficiency (%)” value in data set [1] (setting [4]) was 80-85%. For the same compound, in data set [2], the “Particle size range” value was 180-250 nm.
Consider `CCCCCCCC[Si](C)(C)CCO[C@@H]1O[C@H](CO)[C@H](O)[C@H](O)[C@H]1O` [SIL 22, 2-(Dimethyloctylsilyl)ethyl-β-D-galactopyranosid], for which the “Encapsulation efficiency (%)” value in data set [1] (setting [5]) is 55-70%. Further, the “Particle size (nm)” value in data set [2] is given as 250-300 nm.
For the compound `CCCCCCCCCCCCCCCCCC[Si](CCCCCCCCCCCCCCCCCC)(O[C@@H]1O[C@H](COC(C)=O)[C@@H](OC(C)=O)[C@H](OC(C)=O)[C@H]1OC(C)=O)O[C@@H]1O[C@H](COC(C)=O)[C@@H](OC(C)=O)[C@H](OC(C)=O)[C@H]1OC(C)=O` [SIL 14, 1-O-Dioctadecylsilyl-di(2,3,4,6-O-tetraacetyl-β-D-glucopyranosid)], the “Encapsulation efficiency (%)” value in data set [1] (setting [4]) is listed as 75-80%. The “Particle size range” value in data set [2] is 210-260 nm.
With `CCCCCCCCCC[Si](C)(C)CCO[C@@H]1O[C@H](C(=O)O)[C@@H](O)[C@H](O)[C@H]1O` [SIL 57, 2-(Dimethyldecylsilyl)ethyl-beta-D-glucopyranosidcarboxylate], the “Encapsulation efficiency (%)” value in data set [1] (setting [4]) is on record as 75-80%. Besides, the “Particle size range” value in data set [2] was 180-270 nm.
Regarding `CCCCCCCCCCCCCCCCCC[Si](CCCCCCCCCCCCCCCCCC)(O[C@@H]1O[C@H](COC(C)=O)[C@H](OC(C)=O)[C@H](OC(C)=O)[C@H]1OC(C)=O)O[C@@H]1O[C@H](COC(C)=O)[C@H](OC(C)=O)[C@H](OC(C)=O)[C@H]1OC(C)=O` [SIL 15, 1-O-Dioctadecylsilyl-di(2,3,4,6-O-tetraacetyl-β-D-galactopyranosid)], the “Encapsulation efficiency (%)” value in data set [1] (setting [4]) is 70-78%. Further, the “Particle size range” value in data set [2] was 180-250 nm.
On to `CCCCCCCCCCCC[Si](CCCCCCCCCCCC)(CCCCCCCCCCCC)O[C@@H]1O[C@H](COC(C)=O)[C@@H](OC(C)=O)[C@H](OC(C)=O)[C@H]1OC(C)=O` [SIL 18, Tridodecylsilyl-(2,3,4,6-O-tetraacetyl-β-D-glucopyranosid)], for which, in data set [1] (setting [4]), the “Encapsulation efficiency (%)” value was 55-60%. In addition, the “Encapsulation efficiency (%)” value in data set [1] (setting [5]) was 60-80%. In data set [2], the “Particle size range” value is 160-250 nm and the “Particle size (nm)” value is reported as 220-350 nm.
In the case of “2-(Dimethylcholesterylhemisuccinatesilyl)ethyl-beta-D-glucopyranosid sulfate [SIL 59]”, the “Encapsulation efficiency (%)” value in data set [1] (setting [4]) was 60-70%. Besides, in data set [2], the “Particle size range” value was 180-220 nm.
In the same order, the values of `C[Si](C)(CCCCCCCCCC(=O)O)CCOC1O[C@H](CO)[C@H](O)[C@H](O)[C@H]1N` (stereo partly drawn) [SIL 68] are 70-80% and 180-220 nm.
In the same order, the values of “2-(Dimethyloctylsilylcholin)ethyl-beta-D-PEG-acetylglucosaminether [SIL 54]” are 80-85% and 200-250 nm.
Regarding “2-(N,N,N,trimethylammonia nonyllsilyl)ethyl-beta-D-glucopyranosid [SIL 67]”, the “Encapsulation efficiency (%)” value in data set [1] (setting [4]) was 60-70%. Also, the “Particle size range” value in data set [2] is on record as 200-280 nm.
The corresponding values for “2-(Dimethyloctadecylsilyl)ethyl-beta-N-acetylmuramic acid [SIL 60]” are 60-70% and 200-250 nm.
On to `N.N.[Cl-].[Cl-].[OH-].[OH-].[Pt+4]` [Standard Cis-Oxoplatin, Cis-oxoplatin], for which the “Concentration of Total Platinum in Blood (ng/ml), Average” value in data set [3] (7 days non-treatment period, average of 6 rats) is given as 1521,92 ng/ml. Also, in data set [3] (7 days non-treatment period, individual rats), the “Concentration of Total Platinum in Blood (ng/ml)” value was 1814,30 ng/ml and 1131,40 ng/ml and 1522,90 ng/ml and 1244,30 ng/ml and 1864,30 ng/ml and 1554,30 ng/ml. For the same compound, in data set [3] (average of 6 rats), the “Concentration of Total Platinum in Kidney (µg/g), Average” value is recorded as 14,92 µg/g; the “Concentration of Total Platinum in Lung (µg/g), Average” value is listed as 0,77 µg/g; the “Concentration of Total Platinum in Spleen (µg/g), Average” value is recorded as 2,39 µg/g; the “Concentration of Total Platinum in Stomach (µg/g), Average” value was 0,41 µg/g. Besides, in data set [3] (individual rats), the “Concentration of Total Platinum in Kidney (µg/g)” value was 21,22 µg/g and 13,92 µg/g and 15,88 µg/g and 11,62 µg/g and 11,76 µg/g and 15,12 µg/g; the “Concentration of Total Platinum in Lung (µg/g)” value is 0,80 µg/g and 0,62 µg/g and 1,09 µg/g and 0,52 µg/g and 0,71 µg/g and 0,86 µg/g; the “Concentration of Total Platinum in Stomach (µg/g)” value is 0,51 µg/g and 0,47 µg/g and 0,38 µg/g and 0,35 µg/g (2×) and 0,37 µg/g. For the same compound, the “Concentration of Total Platinum in Spleen (µg/g)” value in data set [3] (individual rats, listed as Standard Cis-Oxoplatinum) was 1,99 µg/g and 2,28 µg/g and 2,35 µg/g and 2,10 µg/g and 3,81 µg/g and 1,80 µg/g.
For the compound `CCCCCCCCCC[Si](C)(C)O[C@H]1O[C@H](CO)[C@H](O)[C@H](O)[C@H]1O` [Sil 8.1, Decyldimethylsilyl-α-D-galactopyranosid], the “Encapsulation efficiency (%)” value in data set [1] (setting [4]) is 65-70%. Moreover, the “Particle size range” value in data set [2] is on record as 100-220 nm.
In the same order, the values of `CCCCCCCCCCCC[Si](C)(C)O[C@H]1O[C@H](CO)[C@@H](O)[C@H](O)[C@H]1O` [Sil 9.1, Dodecyldimethylsilyl-α-D-glucopyranosid] are 60-65% and 150-200 nm.
Take `CCCCCCCCCC(=O)O[Si](C)(C)OC(=O)CCCCCCCCC` [SIL 21.1, Di(decanoyloxy)dimethylsilan]: the “Encapsulation efficiency (%)” value in data set [1] (setting [4]) is 60-75%. Also, in data set [2], the “Particle size range” value is 210-240 nm.
